2 compounds from publication PMC8617627, “Novel DYRK1A Inhibitor Rescues Learning and Memory Deficits in a Mouse Model of Down Syndrome” (Pharmaceuticals, 2021) can be followed below.

The nature of series [1]: Rat IV pharmacokinetics. The series is classed as in vivo. The conditions noted are these: plasma. How it is done:
For determining plasma pharmacokinetics blood samples (via cardiac puncture into heparinized tubes and centrifuged for plasma at 4 °C) were serially sampled via jugular vein at […], 0.5, 5, 15, and 30 min, 1, 2, 4, 8, and 24 h timepoints post dosing. Three animals per timepoint were sampled. All samples were stored at −20 °C pending analysis. Bioanalysis was carried out by UHPLC-TOF mass spectrometry using electrospray ionization against matrix matched calibration lines. The pharmacokinetic parameters were subsequently calculated by noncompartmental methods. Samples are prepared by protein precipitation and/or dilution: tissues are homogenized first. Analysis is carried out using a generic internal standard, with matrix-matched calibration standards bracketing the study samples. Samples were analyzed by high resolution accurate mass UHPLC-TOF MS. […] The mass spectrometer was operated in full scan mode, with positive ion electrospray data acquired over the m/z mass range 100–1000.

The nature of series [2]: Mouse IV pharmacokinetics (plasma and brain). The conditions noted are these: for half-life: read-out: t½ (converted). In kind it is in vivo. Here is the method: In the mouse model, the PK-parameters were also determined in the brain samples. […] Samples are prepared by protein precipitation and/or dilution: tissues are homogenized first. Analysis is carried out using a generic internal standard, with matrix-matched calibration standards bracketing the study samples.
(§1) Samples were analyzed by high resolution accurate mass UHPLC-TOF MS. […] The mass spectrometer was operated in full scan mode, with positive ion electrospray data acquired over the m/z mass range 100–1000.

The nature of series [3]: Mouse PO pharmacokinetics (plasma and brain). In kind it is in vivo. The note with it: for Tmax: po. Here is the method:
For determining plasma and brain pharmacokinetics blood samples (via cardiac puncture into heparinized tubes and centrifuged for plasma at 4 °C) and brains were terminally sampled at 0.25, 0.5, 1, 2, 3, 4, 6, and 8 h timepoints post dosing. Three animals per timepoint were sampled. The three animals designated for the 8 h timepoint were housed in a metabolism cage post-dosing for collection of urine. All samples were stored at −20 °C pending analysis. Bioanalysis was carried out by UHPLC-TOF mass spectrometry using electrospray ionization against matrix matched calibration lines.
The pharmacokinetic parameters were subsequently calculated by noncompartmental methods.
Samples are prepared by protein precipitation and/or dilution: tissues are homogenized first. Analysis is carried out using a generic internal standard, with matrix-matched calibration standards bracketing the study samples.
as §1

A short description of series [4]: Mouse microsome stability assay. The series is classed as in vitro ADME. The note with it: microsomes.
A short description of series [5]: Steady state tissue levels after administration in animal food. In kind it is in vivo, mouse. The text has this: The highest dose provided a continuous concentration of 1.25 μmol/g both in the liver and in the brain and was used in fear conditioning experiments.
Six control euploid mice of the same genetic background as the Ts65Dn mice were used to perform this analysis; two mice per dose and three doses tested.
Prior to contextual fear conditioning experiments, all mice were exposed for three-days to either food mixture alone or food mixture with added PST-001. In addition, the mice continued to consume these same food preparations during the two days necessary to perform the behavioral testing. […] Comparisons between group means were done with Two-way factorial ANOVA, and Fisher protected least significant difference (PLSD) post hoc test was performed for all significant ANOVA (using Statistica version 13, Tibco Software, Palo Alto, CA, USA).

Series [6] can be described thus: Rat IV pharmacokinetics. The series is classed as in vivo. The conditions noted are these: after IV bolus 1 mg/kg.
The target of the next series is CLK2 (Homo sapiens, UniProt P49760). As to the kind of experiment: Kinase profile (33P ATP filter binding). In kind it is biochemical. The conditions noted are these: read-out: Remaining protein kinase activity.
CLK2, sequence (P49760 whole entry): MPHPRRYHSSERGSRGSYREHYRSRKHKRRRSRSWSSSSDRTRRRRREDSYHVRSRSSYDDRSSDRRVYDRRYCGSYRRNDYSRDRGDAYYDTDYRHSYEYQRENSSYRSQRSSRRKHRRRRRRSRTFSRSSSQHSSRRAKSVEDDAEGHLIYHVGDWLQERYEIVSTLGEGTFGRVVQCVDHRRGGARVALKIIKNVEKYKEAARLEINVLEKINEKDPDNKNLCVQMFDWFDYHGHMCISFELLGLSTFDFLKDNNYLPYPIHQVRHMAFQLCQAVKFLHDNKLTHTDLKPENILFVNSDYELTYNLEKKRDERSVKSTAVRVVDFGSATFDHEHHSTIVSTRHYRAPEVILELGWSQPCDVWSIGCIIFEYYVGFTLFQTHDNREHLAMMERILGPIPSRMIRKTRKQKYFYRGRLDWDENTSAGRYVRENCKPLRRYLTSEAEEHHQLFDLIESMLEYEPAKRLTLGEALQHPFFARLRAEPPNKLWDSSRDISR
In a further series the target is DYRK1A (Homo sapiens, UniProt Q13627). The series is described as follows: Kinase profile (33P ATP filter binding). In kind it is biochemical. The note with it: read-out: Remaining protein kinase activity.
In the next series the target is DYRK2 (Homo sapiens, UniProt Q92630). The series is described as follows: Kinase profile (33P ATP filter binding). The conditions noted are these: read-out: Remaining protein kinase activity. In kind it is biochemical.
DYRK2, sequence (Q92630 whole entry): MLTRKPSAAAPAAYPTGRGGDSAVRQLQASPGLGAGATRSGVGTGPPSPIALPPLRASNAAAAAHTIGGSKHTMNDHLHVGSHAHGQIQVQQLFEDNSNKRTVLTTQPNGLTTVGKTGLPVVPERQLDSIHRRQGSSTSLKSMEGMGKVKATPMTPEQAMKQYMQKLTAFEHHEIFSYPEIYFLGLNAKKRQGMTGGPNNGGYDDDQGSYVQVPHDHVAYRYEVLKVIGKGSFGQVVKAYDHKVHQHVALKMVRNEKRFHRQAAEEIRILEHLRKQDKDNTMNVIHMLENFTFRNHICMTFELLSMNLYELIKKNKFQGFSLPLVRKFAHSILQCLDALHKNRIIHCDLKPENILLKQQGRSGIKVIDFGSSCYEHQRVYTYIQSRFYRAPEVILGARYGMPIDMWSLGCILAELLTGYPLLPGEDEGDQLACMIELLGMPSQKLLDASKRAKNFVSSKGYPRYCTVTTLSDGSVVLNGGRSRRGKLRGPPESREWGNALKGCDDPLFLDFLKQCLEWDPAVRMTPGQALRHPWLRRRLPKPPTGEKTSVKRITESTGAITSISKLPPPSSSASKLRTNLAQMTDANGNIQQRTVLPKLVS
Another series deals with DYRK3 (Homo sapiens, UniProt O43781). The series is described as follows: Kinase profile (33P ATP filter binding). The conditions noted are these: read-out: Remaining protein kinase activity. In kind it is biochemical.
DYRK3, sequence (O43781 whole entry): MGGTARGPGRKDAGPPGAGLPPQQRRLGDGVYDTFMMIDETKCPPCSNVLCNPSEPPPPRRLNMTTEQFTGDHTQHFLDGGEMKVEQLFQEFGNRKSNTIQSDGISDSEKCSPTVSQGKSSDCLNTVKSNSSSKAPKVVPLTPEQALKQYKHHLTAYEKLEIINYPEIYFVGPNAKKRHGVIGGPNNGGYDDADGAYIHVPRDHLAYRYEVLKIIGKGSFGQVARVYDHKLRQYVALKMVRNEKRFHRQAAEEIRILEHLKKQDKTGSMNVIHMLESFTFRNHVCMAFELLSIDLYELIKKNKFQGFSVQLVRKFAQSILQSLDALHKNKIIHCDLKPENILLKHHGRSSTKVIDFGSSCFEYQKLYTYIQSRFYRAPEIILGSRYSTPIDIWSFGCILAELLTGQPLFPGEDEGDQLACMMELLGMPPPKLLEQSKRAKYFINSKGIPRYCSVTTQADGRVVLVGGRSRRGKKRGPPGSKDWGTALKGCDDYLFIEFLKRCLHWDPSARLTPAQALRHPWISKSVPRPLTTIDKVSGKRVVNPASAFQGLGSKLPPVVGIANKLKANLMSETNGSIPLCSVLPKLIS
Another series concerns the target FGF-R1 (Homo sapiens, UniProt P11362). The series is described as follows: Kinase profile (33P ATP filter binding). The note with it: read-out: Remaining protein kinase activity. The series is classed as biochemical.
The target of a further series is GSK3b (Homo sapiens, UniProt P49841). The series is described as follows: Kinase profile (33P ATP filter binding). In kind it is biochemical. The conditions noted are these: read-out: Remaining protein kinase activity.
GSK3b, sequence (P49841 whole entry): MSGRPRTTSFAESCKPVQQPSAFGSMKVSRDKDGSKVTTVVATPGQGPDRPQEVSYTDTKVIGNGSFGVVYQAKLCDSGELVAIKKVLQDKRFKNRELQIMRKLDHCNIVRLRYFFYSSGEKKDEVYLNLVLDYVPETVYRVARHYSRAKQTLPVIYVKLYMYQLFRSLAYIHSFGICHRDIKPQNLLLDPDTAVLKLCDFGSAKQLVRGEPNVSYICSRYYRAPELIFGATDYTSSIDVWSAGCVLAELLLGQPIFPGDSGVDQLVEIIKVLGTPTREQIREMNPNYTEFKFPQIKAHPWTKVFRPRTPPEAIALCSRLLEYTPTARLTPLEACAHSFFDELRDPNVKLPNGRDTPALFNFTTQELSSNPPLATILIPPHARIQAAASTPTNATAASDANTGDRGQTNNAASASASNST
Where [7] appears, read: male, Sprague-Dawley, IV 1 mg/kg.

Several values for one entry are separate records, joined by “and”; a condition that tells them apart may be missing. Equal entries are not always repeated. Bounds are passed on as bounds.

FGF-R1, sequence (P11362 22-822): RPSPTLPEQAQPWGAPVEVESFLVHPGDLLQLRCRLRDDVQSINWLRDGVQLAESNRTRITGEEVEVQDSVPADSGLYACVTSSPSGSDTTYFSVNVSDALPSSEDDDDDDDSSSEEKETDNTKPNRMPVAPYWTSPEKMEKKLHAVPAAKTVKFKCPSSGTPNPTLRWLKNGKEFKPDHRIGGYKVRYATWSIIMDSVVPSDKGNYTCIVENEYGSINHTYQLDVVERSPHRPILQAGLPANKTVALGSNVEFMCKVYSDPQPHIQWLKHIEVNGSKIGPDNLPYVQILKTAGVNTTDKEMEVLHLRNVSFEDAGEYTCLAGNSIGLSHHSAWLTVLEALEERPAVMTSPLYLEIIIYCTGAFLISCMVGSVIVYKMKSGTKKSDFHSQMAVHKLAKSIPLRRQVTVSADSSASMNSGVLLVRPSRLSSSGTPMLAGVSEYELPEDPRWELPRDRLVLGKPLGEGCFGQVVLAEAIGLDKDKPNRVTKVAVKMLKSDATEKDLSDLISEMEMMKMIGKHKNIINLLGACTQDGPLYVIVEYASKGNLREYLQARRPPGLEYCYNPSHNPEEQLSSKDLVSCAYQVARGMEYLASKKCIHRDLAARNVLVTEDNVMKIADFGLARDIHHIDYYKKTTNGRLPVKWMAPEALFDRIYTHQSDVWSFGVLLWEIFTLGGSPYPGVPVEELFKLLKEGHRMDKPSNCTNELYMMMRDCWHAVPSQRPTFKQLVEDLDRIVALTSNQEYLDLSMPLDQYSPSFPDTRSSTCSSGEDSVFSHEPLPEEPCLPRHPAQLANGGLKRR

On to `COc1ccc2sc(-c3cncc(NC(C)=O)c3)nc2c1` [PST-001, N-(5-(5-Methoxybenzo[d]thiazol-2-yl)pyridin-3-yl)acetamide], for which the AUCall came to 158 h ∗ ng/mL in “Rat IV pharmacokinetics [1]” (IV 1 mg/kg); 200 h ∗ ng/mL in series [2] (IV 1 mg/kg, brain); 84 h ∗ ng/mL in series [2] (IV 1 mg/kg, plasma); 189 h ∗ ng/mL in [3] (mouse, PO 5 mg/kg, brain); 89 h ∗ ng/mL in [3] (mouse, PO 5 mg/kg, plasma). Besides, the half-life in “Rat IV pharmacokinetics [1]” (Sprague-Dawley (rat), C57BL/6 (mouse), intravenous, oral, mouse or rat, IV or PO, read-out: t1/2 in plasma) is below 60 min; in “Rat IV pharmacokinetics [1]” (male, Sprague-Dawley, iv, 1 mg/kg, IV 1 mg/kg, read-out: t½ (converted)), 43.2 min; in the series “Rat IV pharmacokinetics [1]” (male, Sprague-Dawley, iv, 1 mg/kg, IV bolus 1 mg/kg, circulation, read-out: t½ (converted)), 43 min; in series [2] (C57Bl, IV 1 mg/kg, brain), 9 min; in [2] (C57Bl, IV 1 mg/kg, plasma) it was 9 min; in series [3] (male, C57BL/6, mouse, PO 5 mg/kg, brain, read-out: t½ (converted)) it was 16.2 min. Also, the half-life in series [4] (read-out: half-life (t½)) was determined as 25 min. The highest concentration (Cmax) (in general, the peak of the concentration-time curve) in “Rat IV pharmacokinetics [1]” (setting [7]) came out at 647 ng/mL; in series [2] (C57Bl, IV 1 mg/kg, brain), 867 ng/mL; in series [2] (C57Bl, IV 1 mg/kg, plasma), 362 ng/mL; in [3] (male, C57BL/6, mouse, PO 5 mg/kg, brain), 153 ng/mL; in series [3] (male, C57BL/6, mouse, PO 5 mg/kg, plasma), 76 ng/mL. Moreover, the Vd (in general, a proportionality between amount in the body and measured concentration, not a real space) in “Rat IV pharmacokinetics [1]” (setting [7]) stood at 2.39 L/kg; in series [2] (C57Bl, IV 1 mg/kg, plasma) it was 1.39 L/kg. The clearance (commonly the rate of elimination divided by the concentration) is 105 mL/min/kg in “Rat IV pharmacokinetics [1]” (setting [7]) and 198 mL/min/kg in series [2] (C57Bl, IV 1 mg/kg, plasma). In addition, the Tmax in “Rat IV pharmacokinetics [1]” (male, Sprague-Dawley, iv, 1 mg/kg, IV 1 mg/kg, read-out: Tmax) was 1.8 min; in “Rat IV pharmacokinetics [1]” (male, Sprague-Dawley, iv, 1 mg/kg, IV bolus 1 mg/kg, read-out: Time of maximum venous concentration (Tmax) (converted)), 2 min; in [2] (C57Bl, IV 1 mg/kg, brain), 4.8 min; in series [2] (C57Bl, IV 1 mg/kg, plasma) it was 4.8 min; in [3] (male, C57BL/6, mouse, brain, 5 mg/kg, mouse, PO 5 mg/kg), 15 min; in [3] (male, C57BL/6, mouse, plasma, 5 mg/kg, PO administration) it was 15 min. Moreover, the Tmax in series [3] (male, C57BL/6, mouse, plasma, 5 mg/kg, mouse, PO 5 mg/kg) was determined as 60 min. Also, in [2] (IV bolus, plasma), the “Time of Cmax” value was found to be 5 min. For the same compound, the Kp in series [3] (male, C57BL/6, mouse, brain, 5 mg/kg, at Tmax after PO administration, read-out: brain level as share of the plasma level) was determined as 0.5. In addition, the microsomal CLint in [4] (read-out: intrinsic clearance, Cint) came out at 55 µL/min/mg. For the same compound, the “continuous (steady state) concentration in the brain” value in series [5] (100 mg PST-001/kg powdered food) was determined as 1.25 µmol/g. The “steady state brain concentration” value in [5] (twice-a-day administration in the animal food of 10 mg/kg) came to 150 ng/mL. The “steady state plasma level” value in series [5] (twice-a-day administration in the animal food of 10 mg/kg, 10 mg/kg) is 76 ng/mL and 0.25 μM. The “PST-001 in the urine” value in “Rat IV pharmacokinetics [6]” was “No PST-001 could be found”.
Turning to `COc1ccc2sc(-c3cncc(N)c3)nc2c1` [compound 1, 5-(5-Methoxybenzo[d]thiazol-2-yl)pyridin-3-amine], the remaining activity (usually the signal under treatment as a percentage of the control signal) at 1 µM on CLK2 (1 μM) is 23%; on DYRK1A (1 μM) it was 7%; at DYRK2 (1 μM), 11%; on DYRK3 (1 μM), 14%; on FGF-R1 (1 μM), 110%; at GSK3b (1 μM), 107%. Besides, the remaining activity at 100 µM at CLK2 (100 μM) turned out to be 1%; at DYRK1A (100 μM) it was 0%; on DYRK2 (100 μM) it was 1%; on DYRK3 (100 μM), 2%; on FGF-R1 (100 μM), 91%; at GSK3b (100 μM) it was 25%.
